Laboratory results reported in article PMC3396687, “Moonlighting Peptides with Emerging Function” (PLoS ONE, 2012).
Where two headings read alike, the source gives them in different places. Where no end group is shown, it is not given here.

What was measured:
E. coli (DH10B) = type: cell-based, Escherichia coli; settings: for antibacterial activity (in words): LB, see Table S2, Figure 1A and 1B; for MIC: LB medium, 37°C, 10 h, OD 600 nm, lowest concentration where no visible growth occurred, four independent experiments
Protocol: To evaluate the antibacterial activity of the Iztli peptides, the Escherichia coli DH1OB strain, Δ(mrr-hsd RMS-mcrBC) mcrA recA1 was used.
Serial dilutions of peptides were prepared in sterilized water. These concentrations are reported as the dry weight of each peptide. To determine the actual concentration of these peptides in solution, we estimated the molar absorption coefficient from the absorbance of each peptide at 214 nm using a spectrophotometer HP8452, kindly provided by Dr. Armando Gomez-Puyou. Then, the concentration of each peptide was calculated as: C = A/(L*MAC); where C: concentration (M), A: absorbance (arbitrary unit), L: length of the path of the spectrophotometer cell (cm) and MAC: the molar absorption coefficient (M^−1cm^−1).
The antibacterial activity of the synthetic peptides was examined in sterile 100-well plates (HC2 Pat. Pend., Finland) in a final volume of 200 µl as follows: aliquots (25 µl) of a suspension containing bacteria at a concentration of 10^5 CFU/mL in LB medium were added to 75 µl of water containing the peptide. The mixture was completed by the addition of 100 µl of 2×-concentrated LB medium. The plates were incubated at 37°C with constant orbital shaking for 10 h (at a rate specified by the equipment provider as “High”). Microbial growth was automatically determined by reading every 60 minutes the optical density at 600 nm with an OY Microplate Reader (Bioscreen C, Finland).
The minimum inhibitory concentration (MIC) was determined as the lowest concentration where no visible growth occurred. At least three different concentrations were tested for each peptide to find the corresponding MIC. All MICs were determined from four independent experiments. […]

[1] = tested on: Human foreskin fibroblasts (HFF) cells; assay: Toxicity against primary cultures of human cells (LIVE/DEAD)
Protocol: Human foreskin fibroblasts (HFF) cells were grown in high glucose DMEM (Invitrogen, Carlsbad, CA) supplemented with 10% fetal bovine serum (Sigma, St. Louis, MO) and penicillin/streptomycin 100 U/ml (Invitrogen, Carlsbad, CA). The cultures were incubated at 37 °C in 95% air and 5% carbon dioxide with 95% humidity. After 24 hr of plating, 15 micro liters of a stock solution of each peptide was added and 72 hr later cell viability was estimated using the LIVE/DEAD cytotoxicity kit (Molecular Probes L-3224, Invitrogen, Carlsbad, CA) according to manufacturer instructions (4 μM Eth D-1 and 2 μM Calcein AM were used). The esterase substrate calcein AM gives a green fluorescent product when hydrolyzed; therefore, cells stained green have esterase activity and consequently an intact membrane capable of retaining the esterase product. Ethidium homodimer-1, an impermeable dye that binds DNA, enters only into compromised cellular membranes commonly observed in death cells.
All these concentrations are the dry weight of each peptide.
Images were taken on a Nikon Eclipse TE300 fluorescence microscope from representative fields. Each peptide was tested in two independent assays, each performed in triplicates.

[2] = tested on: S. cerevisiae WT (BY4741); assay: Area under the growth curve (AUC), wild type control of gene screen; type: cell-based, Saccharomyces cerevisiae; settings: 10 µM peptide, 24 h growth curve; control value of Figure S1
Protocol: (§1) An early stationary culture for every essay was obtained from a single colony growing overnight in YPD medium. This culture was used to inoculate a fresh YPD medium to reach 0.04 O.D. in a total volume of 200 µL. Every peptide and strain were tested in 96 well plates, each well containing 200 µL, incubating at 30°C with shaking using a Bioscreen C (Oy Growth Curves Ab Ltd, Finland). The activity of these peptides on each strain was determined by following the cultures during 24 hrs and recording the O.D. every hour. Lack of change in O.D. measured during 24 hours was indicative of antifungal activity.
(§2) The cultures were prepared as in the antifungal activity assay described before (see above). To identify the strains lacking a gene required to inhibit in at least 50% the normal growth of the cells, the area under the growth curve (AUC) was calculated using software designed ad hoc in our laboratory. Thus, the ratio of the AUCs of the cells in the absence and in the presence of the peptide was determined; any strain rendering a ratio value between 1.0 and 2.0 was considered to carry a deletion of a critical gene.

[3] = tested on: null mutant of the STE4 gene (BY4741 MATa ∆ste4); assay: Screening for resistant gene deletions: STE4 null mutant; type: cell-based, Saccharomyces cerevisiae; settings: 10 µM, Table S1 and Figure S1
Protocol: as §1, §2

human cells = settings: cited from earlier work
Text: Supplement pone.0040125.s019.doc, table 1: Supplementary Table S2. Designed selective antibacterial peptides | column: Toxicity (µM)

bacteria = settings: values marked (*), ref 36 ([3] in supplement, del Rio et al., 2001); cited from earlier work
Text: Supplement pone.0040125.s019.doc, table 1: Supplementary Table S2. Designed selective antibacterial peptides | column: MIC (µM)

[4] = tested on: MatA cells from Saccharomyces cerevisiae (BY4741); assay: Antifungal activity (optical density growth curves); type: cell-based; settings: YPD, 30°C, 24 h, OD and CFU; IP1 10 µM, fIP1 60 µM (Figure 3)
Protocol: as §1

isolated mitochondria = assay: Mitochondrial swelling; type: biochemical, Saccharomyces cerevisiae; settings: absorbance at 540 nm; IP1 117 µM, fIP1 100 µM, α-pheromone 160 µM (Figure 1C)
Protocol: We isolated mitochondria as described in Supporting Information S1 (see section I.2). Swelling of mitochondria was determined as reported before. Briefly, fresh mitochondria were diluted in 1 mL of 0.3 M mannitol, 5 mM MES, pH 6.8 (TEA) and 5 µL of ethanol. After 20 seconds, when optical density was stable, the peptides were added. The absorbance at 540 nm was recorded in a DW2 Aminco spectrophotometer (Olis, Inc, USA) in a split mode with magnetic stirring. A decrease in the absorbance was indicative of mitochondrial swelling. To determine the integrity of mitochondrial membranes, 10% of PEG 10 kDa (final concentration) was used to induce water release from mitochondria.
Mitochondria were obtained as described before. Briefly, yeast was incubated in YPD preculture medium for 24 h at 30° C, with agitation at 250 rpm, then the cells were cultured in YPlac at 30° C for 24 h at 250 rpm to improve respiration. Cells were collected and washed twice by centrifugation. The cells were suspended in cold isolating medium (5 mM MES, 0.6 M mannitol, 0.1% bovine serum albumin; the pH was adjusted to 6.8 with triethanolamine). The cells were disrupted into a Bead-Beater cell homogenizer (Biospec Products, USA) with 0.5 mm diameter glass beads, using three 20 seconds pulses separated by 40 seconds intervals. […] Protein concentration was determined by the Biuret method.

[5] = 72 hr exposure, calcein AM / ethidium homodimer-1 staining
[6] = HFF cells, 72 hr exposure, LIVE/DEAD kit, > means no toxicity at the tested concentration, two independent assays in triplicates

Molecule | toxicity on HFF cells (in words) [1, 5] | MIC (E. coli (DH10B)) [µM] | Toxicity [1, 6] [µM] | also measured
CSCC[C@H](NC(=O)[C@@H]1CCCN1C(=O)[C@H](CCC(N)=O)NC(=O)CNC(=O)[C@@H]1CCCN1C(=O)[C@H](CCCCN)NC(=O)[C@H](CC(C)C)NC(=O)[C@H](CCC(N)=O)NC(=O)[C@H](CC(C)C)NC(=O)[C@H](Cc1c[nH]c2ccccc12)NC(=O)[C@H](Cc1c[nH]cn1)NC(=O)[C@H](Cc1c[nH]c2ccccc12)NC(=O)[C@H](Cc1ccccc1)NC(=O)[C@H](CCCNC(=N)N)NC(=O)[C@H](CC(N)=O)NC(=O)[C@H](CC(C)C)NC(=O)[C@H](Cc1ccccc1)NC(=O)[C@@H](N)CCCCN)C(=O)N[C@@H](Cc1ccc(O)cc1)C(=O)O [IP1] | no toxicity | – | – | antibacterial activity (in words) (E. coli (DH10B)): presented anti-bacterial activity; area under the growth curve (AUC) [2]: 0.09; killing activity on STE4 null mutant [3]: resistant
FLHSAKKF [PH(SCAP*)4] | not toxic | >300 | >500 | –
GIGKFLHSAKKFGKAFVGEIMNS [Magainin 2] | – | – | – | Toxicity (human cells): >170 µM; MIC (bacteria): 16 µM
GKFLHSAK [PH(SCAP*)2] | not toxic | >300 | >500 | –
GKFLHSAKKFGK [PH(SCAP*)6] | not toxic | >300 | >500 | –
HSAKKFGK [PH(SCAP*)5] | not toxic | >300 | >500 | –
KFLHSAKK [PH(SCAP*)3] | not toxic | >300 | >500 | –
KFLNRF [fIP1, the six residues at the N-terminus of IP1, control peptide] | – | – | – | antifungal (killing) activity [4]: did not exhibit any activity; mitochondrial swelling activity (isolated mitochondria): did not exhibit any activity
KWKLFKKI [PH(SCAP*)1] | not toxic | – | >460 | –
KWKLFKKIEKVGQNIRDGIIKAGPAVAVVGQATQIAK (Cecropin-A; UniProt P01507 27-63, looked up) [Cecropin A] | – | – | – | Toxicity (human cells): >50 µM; MIC (bacteria): 0.1 µM
LKKLKLLLKLL [PH(CeMa)1] | – | – | – | Toxicity [1]: >90 µM; toxicity on HFF cells (in words) [1]: none of the peptides induced cell death
LKKLLKLLL [PH(Magainin)1] | – | – | – | Toxicity [1]: >120 µM; toxicity on HFF cells (in words) [1]: none of the peptides induced cell death
RRLKDFWHWLQLKPGQPMY [IP2] | – | 20 | – | antibacterial activity (in words) (E. coli (DH10B)): presented anti-bacterial activity; Toxicity [1]: >36 µM; toxicity on HFF cells (in words) [1]: no toxicity
